Experimental findings from US11208381B2, “Indole derivatives and their use as protein kinase inhibitors” (RespiVert Limited, priority 2016, dated 2021) are described below.

pKi: −log10 of the molar value. A value given as a limit tells only on which side of the number the result lay.

The nature of data set [1]: PAMPA permeability assay. As to conditions: PAMPA experimental recovery. Format: in vitro ADME. (The PAMPA barrier holds no transporters, so it reflects passive diffusion.)
Data set [2] can be described thus: Pharmacokinetic measurements in rats, intravenous dosing. Format: in vivo. The conditions noted are these: rat; for concentration at 0.1 h: read-out: lung concentration (nM) at time 0.1 h; for concentration at 1.5 h: read-out: lung concentration (nM) at time 1.5 h; for concentration at 6 h: read-out: lung concentration (nM) at time 6 h; for Kp at 0.1 h / Kp at 1.5 h / Kp at 6 h / Kp at 24 h: lung/plasma; for Kp at 0.1 h: read-out: lung/plasma ratio at time 0.1 h; for Kp at 1.5 h: read-out: lung/plasma ratio at time 1.5 h; for concentration at 24 h: read-out: lung concentration (nM) at time 24 h; for Kp at 6 h: read-out: lung/plasma ratio at time 6 h; for Kp at 24 h: read-out: lung/plasma ratio at time 24 h.

A short description of data set [3]: Pharmacokinetic measurements in rats, intra-tracheal dosing. The format is in vivo. The conditions noted are these: rat; for concentration at 0.1 h: read-out: lung concentration (nM) at time 0.1 h; for concentration at 1.5 h: read-out: lung concentration (nM) at time 1.5 h; for concentration at 6 h: read-out: lung concentration (nM) at time 6 h; for concentration at 24 h: read-out: lung concentration (nM) at time 24 h; for Kp at 0.1 h / Kp at 1.5 h / Kp at 6 h / Kp at 24 h: lung/plasma; for Kp at 0.1 h: read-out: lung/plasma conc ratio at time 0.1 h; for Kp at 1.5 h: read-out: lung/plasma conc ratio at time 1.5 h; for Kp at 6 h: read-out: lung/plasma conc ratio at time 6 h; for Kp at 24 h: read-out: lung/plasma conc ratio at time 24 h; for Lung conc i.t./i.v. Ratio at time 6 h / Lung conc i.t./i.v. Ratio at time 24 h / Lung conc i.t./i.v. Ratio at time 0.1 h / Lung conc i.t./i.v. Ratio at time 1.5 h: i.t. versus i.v.

Data set [4] deals with PDGFRβ (Homo sapiens (Human), UniProt P09619). Nature of the data set: PDGFRβ enzyme inhibition (ADP-Glo assay). The format is biochemical. The conditions noted are these: mean, n = 2 (nintedanib n = 34). On the technique in general: ADP-Glo turns the ADP formed in a reaction into a luminescent signal.
PDGFRβ, sequence (P09619 33-1106): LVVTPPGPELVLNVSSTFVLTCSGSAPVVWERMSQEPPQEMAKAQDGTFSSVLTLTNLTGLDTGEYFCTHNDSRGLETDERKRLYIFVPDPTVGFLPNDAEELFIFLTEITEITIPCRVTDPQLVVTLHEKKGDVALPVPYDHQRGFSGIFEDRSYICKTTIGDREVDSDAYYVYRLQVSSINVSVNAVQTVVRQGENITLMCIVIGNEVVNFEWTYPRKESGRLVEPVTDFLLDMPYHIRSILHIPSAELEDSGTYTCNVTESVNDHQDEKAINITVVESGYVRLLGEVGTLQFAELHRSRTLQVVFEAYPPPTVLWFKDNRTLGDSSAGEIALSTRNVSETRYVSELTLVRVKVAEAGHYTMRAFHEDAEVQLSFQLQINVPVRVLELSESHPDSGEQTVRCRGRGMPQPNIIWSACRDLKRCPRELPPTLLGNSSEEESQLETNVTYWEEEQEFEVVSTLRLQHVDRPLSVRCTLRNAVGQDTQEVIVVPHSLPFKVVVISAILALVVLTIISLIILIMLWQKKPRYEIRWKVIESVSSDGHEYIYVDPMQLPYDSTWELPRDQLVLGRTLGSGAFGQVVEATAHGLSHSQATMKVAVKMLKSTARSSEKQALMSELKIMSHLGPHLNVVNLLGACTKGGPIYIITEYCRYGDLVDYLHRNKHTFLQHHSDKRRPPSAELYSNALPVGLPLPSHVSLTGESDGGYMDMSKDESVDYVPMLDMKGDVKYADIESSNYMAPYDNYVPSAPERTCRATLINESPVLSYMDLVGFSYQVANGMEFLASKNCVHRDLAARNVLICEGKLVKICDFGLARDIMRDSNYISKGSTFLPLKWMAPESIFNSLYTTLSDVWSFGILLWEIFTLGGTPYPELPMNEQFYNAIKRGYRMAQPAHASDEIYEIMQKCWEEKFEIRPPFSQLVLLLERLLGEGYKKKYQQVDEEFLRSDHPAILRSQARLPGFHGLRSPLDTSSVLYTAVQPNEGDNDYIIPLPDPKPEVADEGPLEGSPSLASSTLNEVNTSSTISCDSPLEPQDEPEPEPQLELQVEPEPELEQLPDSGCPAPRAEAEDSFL
Where [5] appears, read: male, CD, lung, other: intra-tracheal.
The mark [6] stands for this setting: male, CD, other: intra-tracheal.

For `COC(=O)c1cc2c(cc1C)/C(=C(/Nc1ccc(C(=O)NC3CCN(C)CC3)cc1)c1ccccc1)C(=O)N2` [Example 18, (Z)-Methyl-5-methyl-3-(((4-((1-methylpiperidin-4-yl)carbamoyl)phenyl)amino)(phenyl)methylene)-2-oxoindoline-6-carboxylate], the “% Recovery” value in data set [1] is recorded as 84.5%. In data set [2] (i.v. dose 0.1 (nintedanib 0.42)), the t½ – broadly, how long it takes for the measured level to halve – stood at 5.1 h. In addition, the concentration at 0.1 h in data set [2] (i.v. dose 0.1 (nintedanib 0.42), 0.1 h) came out at 638 nM; in data set [3] (i.t. dose 0.1 (nintedanib 0.42), 0.1 h), 6533 nM. Also, the concentration at 1.5 h in data set [2] (i.v. dose 0.1 (nintedanib 0.42), 1.5 h) is reported as 306 nM; in data set [3] (i.t. dose 0.1 (nintedanib 0.42), 1.5 h), 5987 nM. The concentration at 6 h in data set [2] (i.v. dose 0.1 (nintedanib 0.42), 6 h) worked out at 201 nM; in data set [3] (i.t. dose 0.1 (nintedanib 0.42), 6 h) it was 2351 nM. For the same compound, the concentration at 24 h in data set [3] (i.t. dose 0.1 (nintedanib 0.42), 24 h) was 4523 nM.
Take `COC(=O)c1cc2c(cc1C)/C(=C(/Nc1ccc(C(=O)NCCN3CCC(O)CC3)cc1)c1ccccc1)C(=O)N2` [Example 12, (Z)-Methyl 3-(((4-((2-(4-hydroxypiperidin-1-yl)ethyl)carbamoyl)phenyl)amino)(phenyl)methylene)-5-methyl-2-oxoindoline-6-carboxylate]: the pKi (in general, the negative decadic logarithm of the Ki, by convention in mol/L) in data set [4] is 8.06.
The same measure, in the same setting: then `COC(=O)c1cc2c(cc1C)/C(=C(/Nc1ccc(S(=O)(=O)NCCN3CCN(C)CC3)cc1)c1ccccc1)C(=O)N2` [Example 1, (Z)-Methyl 5-methyl-3-(((4-(N-(2-(4-methylpiperazin-1-yl)ethyl)sulfamoyl)phenyl)amino)(phenyl)methylene)-2-oxoindoline-6-carboxylate], with 8.00.
`COC(=O)c1cc2c(cc1C)/C(=C(/Nc1ccc(C(=O)NCC(=O)N3CCN(CCO)CC3)cc1)c1ccccc1)C(=O)N2` [Example 7, (Z)-Methyl 3-(((4-((2-(4-(2-hydroxyethyl)piperazin-1-yl)-2-oxoethyl)carbamoyl)phenyl)amino)(phenyl)methylene)-5-methyl-2-oxoindoline-6-carboxylate] had a pKi in data set [4] of 8.24. In data set [2] (male, CD, lung, iv), the concentration at 0.1 h turned out to be 99 nM and the concentration at 1.5 h came out at 44 nM. For the same compound, in data set [2] (male, CD, iv), the Kp at 0.1 h amounted to 2 and the Kp at 1.5 h came out at 12. In addition, in data set [3] (setting [5]), the concentration at 0.1 h was 1530 nM, the concentration at 1.5 h came to 886 nM, the concentration at 6 h is 116 nM and the concentration at 24 h was 27 nM. Further, in data set [3] (setting [6]), the Kp at 0.1 h came to 39, the Kp at 1.5 h was more than 265, the Kp at 6 h was more than 35 and the Kp at 24 h was more than 8. In addition, in data set [3] (6 h), the “Lung conc i.t./i.v. Ratio at time 6 h” value is reported as more than 42. The “Lung conc i.t./i.v. Ratio at time 24 h” value in data set [3] (24 h) is given as more than 10.
On to `COC(=O)c1cc2c(cc1C)/C(=C(/Nc1ccc(C(=O)NCCN3CCC(N(C)C)CC3)cc1)c1ccccc1)C(=O)N2` [Example 6, (Z)-Methyl 3-(((4-((2-(4-(dimethylamino)piperidin-1-yl)ethyl)carbamoyl)phenyl)amino)(phenyl)methylene)-5-methyl-2-oxoindoline-6-carboxylate], for which the pKi in data set [4] is 7.99. In addition, in data set [2] (male, CD, lung, iv), the concentration at 0.1 h was found to be 1000 nM, the concentration at 1.5 h was determined as 949 nM, the concentration at 6 h came to 939 nM and the concentration at 24 h turned out to be 837 nM. In data set [2] (male, CD, iv), the Kp at 0.1 h amounted to 77, the Kp at 1.5 h is more than 558, the Kp at 6 h is more than 552 and the Kp at 24 h was more than 492. Besides, in data set [3] (setting [5]), the concentration at 0.1 h was found to be 9830 nM, the concentration at 1.5 h came to 7570 nM, the concentration at 6 h is 7820 nM and the concentration at 24 h worked out at 6440 nM. Besides, in data set [3] (setting [6]), the Kp at 0.1 h worked out at 472, the Kp at 1.5 h was more than 4450, the Kp at 6 h is more than 4600 and the Kp at 24 h is more than 3790. In addition, in data set [3] (0.1 h), the “Lung conc i.t./i.v. Ratio at time 0.1 h” value amounted to 9.8. The “Lung conc i.t./i.v. Ratio at time 1.5 h” value in data set [3] (1.5 h) came to 8.0. In data set [3] (6 h), the “Lung conc i.t./i.v. Ratio at time 6 h” value was found to be 8.3. In addition, in data set [3] (24 h), the “Lung conc i.t./i.v. Ratio at time 24 h” value worked out at 7.7.
`COC(=O)c1cc2c(cc1C)/C(=C(/Nc1ccc(C(=O)NCC(=O)N3CCN(C)CC3)cc1)c1ccccc1)C(=O)N2` [Example 8, (Z)-Methyl 5-methyl-3-(((4-((2-(4-methylpiperazin-1-yl)-2-oxoethyl)carbamoyl)phenyl)amino)(phenyl)methylene)-2-oxoindoline-6-carboxylate] had a negative-log Ki (pKi) in data set [4] of 8.09.
In data set [4], `COC(=O)c1cc2c(cc1C)/C(=C(/Nc1ccc(C(=O)NCCN3CCCN(C)CC3)cc1)c1ccccc1)C(=O)N2` [Example 5, (Z)-Methyl 5-methyl-3-(((4-((2-(4-methyl-1,4-diazepan-1-yl)ethyl)carbamoyl)phenyl)amino)(phenyl)methylene)-2-oxoindoline-6-carboxylate] gave a pKi of 7.89. Moreover, in data set [2] (male, CD, lung, iv), the concentration at 0.1 h was 765 nM, the concentration at 1.5 h is 330 nM, the concentration at 6 h amounted to 499 nM and the concentration at 24 h was 247 nM. Further, in data set [2] (male, CD, iv), the Kp at 0.1 h stood at 127, the Kp at 1.5 h is more than 188, the Kp at 6 h is more than 284 and the Kp at 24 h is more than 140. Also, in data set [3] (setting [5]), the concentration at 0.1 h was 5510 nM, the concentration at 1.5 h was determined as 4020 nM, the concentration at 6 h was 1070 nM and the concentration at 24 h was found to be 1670 nM. For the same compound, in data set [3] (setting [6]), the Kp at 0.1 h came out at 371, the Kp at 1.5 h is more than 2280, the Kp at 6 h was more than 606 and the Kp at 24 h was more than 951. For the same compound, in data set [3] (0.1 h), the “Lung conc i.t./i.v. Ratio at time 0.1 h” value turned out to be 7. The “Lung conc i.t./i.v. Ratio at time 1.5 h” value in data set [3] (1.5 h) is recorded as 12. In addition, the “Lung conc i.t./i.v. Ratio at time 6 h” value in data set [3] (6 h) came out at 2. Also, the “Lung conc i.t./i.v. Ratio at time 24 h” value in data set [3] (24 h) amounted to 7.
For the compound `COC(=O)c1cc2c(cc1C)/C(=C(/Nc1ccc(C(=O)NCCN3CCNC(=O)C3)cc1)c1ccccc1)C(=O)N2` [Example 9, (Z)-Methyl 5-methyl-2-oxo-3-(((4-((2-(3-oxopiperazin-1-yl)ethyl)carbamoyl)phenyl)amino)(phenyl)methylene)indoline-6-carboxylate], the “Lung conc i.t./i.v. Ratio at time 0.1 h” value in data set [3] (0.1 h) came to 12. Also, the “Lung conc i.t./i.v. Ratio at time 1.5 h” value in data set [3] (1.5 h) is recorded as 51. Further, the “Lung conc i.t./i.v. Ratio at time 6 h” value in data set [3] (6 h) is recorded as 45. Further, the “Lung conc i.t./i.v. Ratio at time 24 h” value in data set [3] (24 h) amounted to 21.
The matching figures for `COC(=O)c1cc2c(cc1C)/C(=C(/Nc1ccc(C(=O)NCC3CCN(C)CC3)cc1)c1ccccc1)C(=O)N2` [Example 3, (Z)-Methyl 5-methyl-3-(((4-(((1-methylpiperidin-4-yl)methyl)carbamoyl)phenyl)amino)(phenyl)methylene)-2-oxoindoline-6-carboxylate]: 3, 7, 15 and 14.
